The subject of the assay is MRSA. Particulars: Staphylococcus aureus.

≈ marks a conversion by molar mass, not a printed value. Like-named read-outs stand apart in the source and are kept apart here.

Description: Macroarray compounds are dissolved in DMSO and pipetted into a 96-well multititer plate containing Luria-Bertani (LB) broth inoculated with MRSA. The final concentrations of the compounds selected, e.g., 50 μM, 25 μM, 12.5 μM, 6.3 μM, and 3.1 μM, with a final DMSO concentration of 2.5% for each compound in a given well. The plate is incubated with shaking at 37° C. for 18 h, and the absorbance is measured at 595 nm using a plate-reader. The approximate MIC can be determined by the complete absence of bacterial growth relative to our negative control (LB broth with no bacteria added).
For estimated MIC determination, DMSO was added to the dried compound residue obtained from a single spot to afford ca. 100 μL of a 2 mM stock solution. Aliquots (5 μL) of these solutions were added to a 96-well plate, followed by 195 μL of diluted S. aureus 10390 (10^6 CFUs/mL) to yield ca. 50 μM final concentrations. The plates were swirled for 1 h to ensure compound dissolution, incubated for 12 h at 37° C., and the absorbance at 595 nm was recorded using a plate reader. […] Actual MIC values were determined for lead compounds resynthesized in solution using an analogous procedure with solutions of known concentration.
An aliquot of DMSO (ca. 100 μL depending on the loading of the parent hydroxyacetophenone) was added to the dried compound residue obtained after TFA cleavage and elution from a single spot. This afforded a 2.0 mM “spot stock” solution for each spot.
For estimated MIC screens, 5.0 μL portions of the “spot stock” solutions were added to the appropriate wells in a sterile, polystyrene 96-well plate to yield ca. 50 μM solutions (dependent on the initial loading of hydroxyacetopheneone and compound purity). […] All estimated MIC assays were performed in quadruplicate. Note: the MIC value is defined as the lowest concentration where no bacterial growth occurs.
This assay procedure is based in part on the method reported by Strøm et al. (Strøm, M. B.; Haug, E. B.; Skar, M. L.; Stensen, W.; Stiberg, T.; Svendsen, J. S. J. Med. Chem. 2003, 46, 1567-1570.) A 400 μL portion of overnight S. aureus 10390 culture was diluted with 100 mL of sterile LB broth to give ca. 10^6 CFUs per mL. Aliquots (195 μL) of this solution were added to all of the wells in a sterile 96-well plate (except for the negative control wells; 195 μL of sterile LB broth were added to these wells). The plates were placed on an orbital shaker table and gently swirled for 1 h to ensure compound dissolution, and then incubated (without shaking) for 12 h at 37° C. The absorbance at 595 nm was recorded using a plate reader.

The term MIC denotes the smallest concentration in the dilution series that meets the test's criterion for growth inhibition. Take `NC(=O)COc1cccc(C(=O)/C=C/c2cccc(C(F)(F)F)c2)c1` [Compound B18]: the MIC (read-out: Solution MIC) was found to be 54 ± 1 µM (≈ 18.9 µg/mL) and the minimal inhibitory concentration (MIC) (read-out: Support MIC) is 25 to 50 µM (≈ 8.73 to 17.5 µg/mL).

As to `O=C(O)c1cn(C2CC2)c2cc(N3CCNCC3)c(F)cc2c1=O` [ciprofloxacin], the MIC (read-out: Solution MIC) amounted to 0.6 ± 0.2 µM (≈ 0.199 µg/mL).

Regarding `CC(=O)NC[C@H]1CN(c2ccc(N3CCOCC3)c(F)c2)C(=O)O1` [linezolid], the MIC (read-out: Solution MIC) turned out to be 5 ± 1 µM (≈ 1.69 µg/mL).

(Values after patent publication US8367680B2, “Antibacterial small molecules and methods for their synthesis” (Wisconsin Alumni Research Foundation, priority 2008, dated 2013).)
